Key:
ADHD patients = assay: Real-time fMRI neurofeedback of right-IFG after Ritalin IR with CPTi, CPT and Strooplike tasks; assay type: in vivo, human; details: 0.1-0.2 mg/kg Ritalin IR; right-IFG Up vs Down regulation; 24 ADHD patients
Procedure: According to some exemplary embodiments, 24 ADHD patients participated in a three session within-subject experimental design.
In some embodiments, taking the known pharmacokinetic properties of MPH into account, the neurofeedback paradigm was scheduled to begin towards the estimated peak concentration of MPH in brain blood plasma (45 min), and last for 40 minutes, well into the drug's plateau of concentration phase, thus assuming a maximum effect of drug delivery and absorption to the rIFG and related brain regions. Additionally, cognitive performance was evaluated before administration and following the NF task via three behavioral tasks (CPTi, CPT and Strooplike, measuring response inhibition, sustained attention and executive attention, respectively; Shalev-Mevorach et al. 2005; 2011).

[1] = system: subjects medicated with MPH; assay: Conjunctive continuous performance task (CPT) after half dose MPH with cognitive induction or music control; assay type: in vivo, human; details: half dose MPH PO
Text: Reference is now made to FIGS. 7A-7B, depicting validation experiments for testing whether FPC improves attention functions of subjects medicated with MPH, according to some embodiments of the invention. In some embodiments, the experiment includes three sessions. In some embodiments, in the first session 702, the subjects performed a conjunctive continuous performance task (CPT, Shalev et al., 2011). In some embodiments, this test yields measures of sustained attention, which are generalized across different sensory modalities.
According to some embodiments, in the second and the third sessions 706, the subjects took half of their prescribed drug 708 dose by per os (PO) administration. In some embodiments, in the first epoch they went through either a cognitive induction condition 714 during which they performed the NeuroTrax tasks or a control condition 712 during which they listened to a piece of their favorite music. In some embodiments, these 30 min conditions were followed by a 20-minutes rest epoch 716, for example to allow for the testing of an enduring effect of the FPC. […]
According to some exemplary embodiments, FPC effect was measured for the sustained attention measures of average 722 and standard deviation 724 response time, which show high reliability and validity (Shalev et al., 2011). […]

[2] = after administration of Ritalin IR; cited from earlier work

SMILES: COC(=O)C(c1ccccc1)C1CCCCN1 (stereo not shown) [MPH, Methylphenidate]
- effects on sustained attention (CPT task) and response inhibition (CPTi task) following the up regulation condition (ADHD patients): substantially larger effects
- improvement of sustained attention measures, cognitive induction task relative to control task (music) ([1]; two subjects): higher
- sustained attention measures of average and standard deviation response time (CPT) ([1]; two subjects (males)): improved
- estimated peak concentration of MPH in brain blood plasma (time) [2]: 45 min

From patent publication US20190329063A1, “METHOD FOR MODIFYING THE T[…] OF DRUGS” (priority 2016, published 2019)
